According to patent US20230137562A1, “TAU AGGREGATION INHIBITORS” (priority 2017, published 2023):
Ends that are not written are not given here. Peptide text beside a SMILES is read from it. TAMRA = tetramethyl rhodamine dye

Molecular target: TauRD (P301S)-Nluc and TauRD (P301S)-Cluc split luciferase compliment pair (human, UniProt P10636-8 244-372; P10636-8 244-372)
Assay: cell-based or functional assay
Details: not given

Sequence of TauRD (P301S)-Nluc and TauRD (P301S)-Cluc split luciferase compliment pair (P10636 561-689 P618S, chain 1 of 2): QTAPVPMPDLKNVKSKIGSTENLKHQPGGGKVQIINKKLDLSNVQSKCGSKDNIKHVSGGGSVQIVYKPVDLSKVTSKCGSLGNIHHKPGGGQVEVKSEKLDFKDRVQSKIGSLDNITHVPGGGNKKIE
Sequence of TauRD (P301S)-Nluc and TauRD (P301S)-Cluc split luciferase compliment pair (P10636 561-689 P618S, chain 2 of 2): as the sequence (P10636 561-689 P618S, chain 1 of 2) above

Q: How did the “EC50 (µM), HEK cell assay, split luciferase complementation” value (shortened to “EC50 (µM), HEK cell assay”) turn out when RRRRRRRRRGGSGGLFYLRLT [RRRRRRRRR-GGSGG-LFYLRLT] was run?
A: The value was 9.6 µM.

Q: For {TAMRA}-RRRRRRRRRRGGSGGWRIWIRYW [[TAMRA]-RRRRRRRRRR-GGSGG-WRIWIRYW], which “EC50 (µM), HEK cell assay” value is on record?
A: The value was 4.1 µM.

Q: {TAMRA}-RRRRRRRRRGGSGGWRLKVRWW [[TAMRA]-RRRRRRRRR-GGSGG-WRLKVRWW] was tested. Which “EC50 (µM), HEK cell assay” value did it give?
A: Its value is 8.2 µM.

Molecular target: T1, Ac-VQIINK-NH2 (Homo sapiens, UniProt P10636)
T1 construct: made in house; host or cells: chemical peptide synthesis
Assay: Inhibition of VQIINK aggregation with peptide inhibitors (ThT)
Format: biochemical
Details: not given
Method: The following describes the experimental method used to evaluate the IC50 of aggregation of VQIINK (SEQ ID NO:220) inhibition by the peptide inhibitors described above. The peptide sequence comprising Ac-VQIINK-NH2 (C-terminal amidated (SEQ ID NO: 220)) is prepared using the peptide synthetic method described above. The Ac-VQIINK-NH2 (SEQ ID NO: 220) is stored at 10 mM in 100% DMSO at −80° C., and an aliquot volume sufficient for a single aggregation assay plate is removed. The stock aggregation buffer (5×) is prepared with the following: 250 mM NaPhosphate (pH 8.0), 125 mM KCl, and 500 micromolar ThioflavinT (ThT). The aggregation assay is conducted with shaking, at room temperature, on a plate reader model FLX-800 by BioTek. Water for primary Ac-VQIINK-NH2 (SEQ ID NO: 220) dissolution is cooled to 4 degrees Celsius (7.245 milliliters). Buffer is added from the 5×stock (40 microliters, final volume in assay plate is 130 microliters, final buffer concentrations 50 millimolar NaPO4 (pH 8.0); 25 milllimolar KCl; and 100 micromolar ThioflavinT). The assay plate is cooled to 4 degrees Celsius. The Ac-VQIINK-NH2 (105 microliters (SEQ ID NO: 220)) is added to the chilled water (final volume of 7.350 milliliters), this is added into a pooled reservoir, and using a 96-channel robotic pipettor, 70 microliters diluted Ac-VQIINK-NH2 (SEQ ID NO: 220) is added to the assay plate to achieve a final concentration of 50 micromolar in a 200 microliter final assay volume (per well). Data is acquired using Magellan software. The calculation of IC50 is done by an automatic algorithm developed using the R statistical programing language. Briefly, the algorithm uses data exported in excel format from the plate reader to average the cumulative ThT fluorescence for each inhibitor concentration in the 6-point dose response. The IC50 is calculated as the midpoint of a sigmoid curve fitted to the correlation of normalized ThT fluorescence and inhibitor concentration.

Q: Which IC50 does the source give for `CC[C@H](C)[C@H](NC(=O)[C@@H](N)CCCCN)C(=O)N[C@@H](CCCNC(=N)N)C(=O)N[C@@H](CC(C)C)C(=O)N[C@@H](Cc1ccc(O)cc1)C(=O)N[C@@H](Cc1c[nH]c2ccccc12)C(=O)N[C@@H](Cc1c[nH]c2ccccc12)C(=O)O` [compound 194] (H-KIRLYWW-OH) here?
A: The IC50 was 2.86 µM.

Q: `CC[C@H](C)[C@H](NC(=O)[C@H](CCCNC(=N)N)NC(=O)[C@@H](NC(=O)[C@H](Cc1c[nH]c2ccccc12)NC(=O)[C@@H](N)Cc1c[nH]c2ccccc12)[C@@H](C)CC)C(=O)N[C@@H](CCCNC(=N)N)C(=O)N[C@@H](Cc1ccc(O)cc1)C(=O)N[C@@H](Cc1c[nH]c2ccccc12)C(=O)N[C@@H](CC(C)C)C(=O)O` [compound 65] (H-WWIRIRYWL-OH) was tested. Which IC50 did it give?
A: Its IC50 is 4.88 µM.

Q: `CC[C@H](C)[C@H](NC(=O)[C@H](CCCNC(=N)N)NC(=O)[C@@H](NC(=O)[C@@H](N)CCCNC(=N)N)[C@@H](C)CC)C(=O)N[C@@H](Cc1c[nH]c2ccccc12)C(=O)N[C@@H](CC(C)C)C(=O)N[C@@H](Cc1c[nH]c2ccccc12)C(=O)O` [compound 26] (H-RIRIWLW-OH) was tested. Which IC50 did it give?
A: Its IC50 is 1.93 µM.

Q: Which IC50 does the source give for `CC[C@H](C)[C@H](NC(=O)[C@H](Cc1c[nH]c2ccccc12)NC(=O)[C@@H](NC(=O)[C@H](CCCNC(=N)N)NC(=O)[C@@H](N)CC(C)C)[C@@H](C)CC)C(=O)N[C@@H](CCCNC(=N)N)C(=O)N[C@@H](Cc1ccc(O)cc1)C(=O)N[C@@H](CC(C)C)C(=O)O` [compound 155] (H-LRIWIRYL-OH) here?
A: Its IC50 is 1.74 µM.

Q: `CC[C@H](C)[C@H](NC(=O)[C@H](C)NC(=O)[C@@H](N)Cc1c[nH]c2ccccc12)C(=O)N[C@@H](CCCNC(=N)N)C(=O)N[C@H](C(=O)N[C@@H](CCCNC(=N)N)C(=O)N[C@@H](Cc1c[nH]c2ccccc12)C(=O)O)[C@@H](C)CC` [compound 124] (H-WAIRIRW-OH) was tested. Which IC50 did it give?
A: The IC50 was 1.94 µM.

Q: Which IC50 does the source give for `CC[C@H](C)[C@H](NC(=O)[C@H](CCC(N)=O)NC(=O)[C@@H](NC(=O)[C@H](CCCNC(=N)N)NC(=O)[C@@H](N)Cc1c[nH]c2ccccc12)[C@@H](C)CC)C(=O)N[C@@H](CCCNC(=N)N)C(=O)N[C@@H](Cc1c[nH]c2ccccc12)C(=O)O` [compound 69] (H-WRIQIRW-OH) here?
A: Its IC50 is 2.17 µM.

Q: How did the IC50 turn out when `CC[C@H](C)[C@H](NC(=O)[C@H](CCCNC(=N)N)NC(=O)[C@@H](NC(=O)[C@H](CCCNC(=N)N)NC(=O)[C@@H](N)CC(C)C)[C@@H](C)CC)C(=O)N[C@@H](CCCNC(=N)N)C(=O)N[C@@H](Cc1c[nH]c2ccccc12)C(=O)O` [compound 139] (H-LRIRIRW-OH) was run?
A: Its IC50 is 4.31 µM.

Q: How did the IC50 turn out when `CC[C@H](C)[C@H](NC(=O)[C@H](CCCNC(=N)N)NC(=O)[C@@H](N)Cc1c[nH]c2ccccc12)C(=O)N[C@@H](Cc1c[nH]c2ccccc12)C(=O)N[C@@H](CC(C)C)C(=O)N[C@@H](CCCNC(=N)N)C(=O)N[C@@H](Cc1ccc(O)cc1)C(=O)N[C@@H](Cc1c[nH]c2ccccc12)C(=O)O` [compound 17] (H-WRIWLRYW-OH) was run?
A: Its IC50 is 2.32 µM.

Q: With `CC[C@H](C)[C@H](NC(=O)[C@H](Cc1ccccc1)NC(=O)[C@@H](NC(=O)[C@H](CCCNC(=N)N)NC(=O)[C@@H](N)Cc1c[nH]c2ccccc12)[C@@H](C)CC)C(=O)N[C@@H](CCCNC(=N)N)C(=O)N[C@@H](Cc1c[nH]c2ccccc12)C(=O)O` [compound 136] (H-WRIFIRW-OH) as the molecule, how does the IC50 read?
A: Its IC50 is 9.13 µM.

Q: For `CC[C@H](C)[C@H](NC(=O)[C@H](CCCNC(=N)N)NC(=O)[C@@H](NC(=O)[C@@H](N)Cc1c[nH]c2ccccc12)[C@@H](C)CC)C(=O)N[C@@H](CCCNC(=N)N)C(=O)N[C@@H](Cc1ccc(O)cc1)C(=O)N[C@@H](Cc1c[nH]c2ccccc12)C(=O)O` [compound 152] (H-WIRIRYW-OH), which IC50 is on record?
A: Its IC50 is 6.02 µM.

Q: `CC[C@H](C)[C@H](N)C(=O)N[C@@H](Cc1c[nH]c2ccccc12)C(=O)N[C@H](C(=O)N[C@@H](CCCNC(=N)N)C(=O)N[C@@H](Cc1ccc(O)cc1)C(=O)N[C@@H](Cc1c[nH]c2ccccc12)C(=O)O)[C@@H](C)CC` [compound 180] (H-IWIRYW-OH) was tested. Which IC50 did it give?
A: The IC50 was 5.43 µM.

Q: How did the IC50 turn out when `CC[C@H](C)[C@H](N)C(=O)N[C@@H](Cc1c[nH]c2ccccc12)C(=O)N[C@H](C(=O)N[C@@H](CCCNC(=N)N)C(=O)N[C@@H](CC(C)C)C(=O)N[C@@H](Cc1c[nH]c2ccccc12)C(=O)O)[C@@H](C)CC` [compound 50] (H-IWIRLW-OH) was run?
A: The IC50 was 2.12 µM.

Q: `CC[C@H](C)[C@H](NC(=O)[C@H](Cc1c[nH]c2ccccc12)NC(=O)[C@@H](NC(=O)[C@H](CCCNC(=N)N)NC(=O)[C@@H](N)Cc1c[nH]c2ccccc12)[C@@H](C)CC)C(=O)N[C@@H](CCCNC(=N)N)C(=O)N[C@@H](CC(C)C)C(=O)N[C@@H](Cc1c[nH]c2ccccc12)C(=O)O` [compound 202] (H-WRIWIRLW-OH) was tested. Which IC50 did it give?
A: The IC50 was 3.97 µM.

Molecular target: His-Tau40P301L Tau (UniProt P10636-8 1-441)
Sequence (P10636 other isoform, or with tags, fused parts or gaps limits assumed): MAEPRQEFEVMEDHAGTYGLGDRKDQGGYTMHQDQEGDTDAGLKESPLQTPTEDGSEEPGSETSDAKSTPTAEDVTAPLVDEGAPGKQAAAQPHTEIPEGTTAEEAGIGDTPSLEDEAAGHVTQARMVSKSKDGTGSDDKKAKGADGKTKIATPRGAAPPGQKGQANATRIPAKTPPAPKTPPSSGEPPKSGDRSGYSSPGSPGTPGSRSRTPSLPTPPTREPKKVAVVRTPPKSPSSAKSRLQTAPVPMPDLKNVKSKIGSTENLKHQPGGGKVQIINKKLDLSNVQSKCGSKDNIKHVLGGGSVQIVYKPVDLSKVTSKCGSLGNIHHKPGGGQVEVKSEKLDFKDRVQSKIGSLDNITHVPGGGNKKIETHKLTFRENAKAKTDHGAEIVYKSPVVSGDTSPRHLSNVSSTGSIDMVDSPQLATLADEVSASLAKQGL
Assay: cell-based or functional assay
Details: not given

Q: {TAMRA}-RRRRRRRRRRGGSGGWRIWIRYW [[TAMRA]-RRRRRRRRRR-GGSGG-WRIWIRYW] was tested. Which “IC50 (µM), Tau40 assay-Modified peptides (ThT)” value did it give?
A: The value was 12.6 µM.

Q: For {TAMRA}-RRRRRRRRRGGSGGWRLKVRWW [[TAMRA]-RRRRRRRRR-GGSGG-WRLKVRWW], which “IC50 (µM), Tau40 assay-Modified peptides (ThT)” value is on record?
A: Its value is 7.3 µM.

Molecular target: T2, Tau40P301L protein (Homo sapiens, UniProt P10636, P618L)
T2 construct: His; made in house; host or cells: E. coli BL21
T2 sequence (P10636 1-441 isoform P10636-8 P301L): as the sequence (P10636 other isoform, or with tags, fused parts or gaps limits assumed) above
Assay: biochemical
Details: IC50 (μM), Tau40 assay
Method: The following describes the experimental method used to evaluate the IC50 of Tau amyloid inhibition by the peptide inhibitors described above. The physical setup of inhibitor peptides in these dose responses is done automatically with an 8-span head on a BioMek3000 liquid handler into Costar optically 96-well clear bottom black plates. Inhibitor peptides are kept frozen at −80° C. in 100% dimethylsulfoxide (DMSO) solution at a concentration of 20 mM and thawed immediately before the assay. The Biomek makes two serial dilutions of a single inhibitor for a duplicate 6-point dose response curve. This is followed by addition a 5×reaction buffer. The final reaction buffer concentration in the assay is 50 mM MES, pH 6.8, 125 mM NaCl, 10 μM Heparin, 50 μM ThT. The Tau substrate is added by a 96-head Multimek liquid handler making a 4:10 dilution of Tau40P301L protein to which DTT is added directly before setting up the assay. The P301 L mutant of tau is associated with features of human tauopathies (Comb et al., supra; Lewis et al., Nature Genetics 25: 402-405 (2000)). The final concentrations of Tau40P301L and DTT in the assay is 2.5 μM and 5 mM, respectively. Amyloid formation is measured by monitoring Thioflavin T (ThT) fluorescence every 10 minutes with excitation and emission wavelengths of 440 and 485 nm using fluorescence plate readers. The assay plates are kept in the plate reader during the whole duration of the assay, and incubated at 37° C. with continuous shaking for 24 hours. Plate reader models Genios and Spectrafluor Plus produced by Tecan are used and data is acquired using Magellan software. The calculation of IC50 is done by an automatic algorithm developed using the R statistical programing language. Briefly, the algorithm uses data exported in excel format from the plate reader to average the cumulative ThT fluorescence for each inhibitor concentration in the 6-point dose response. The IC50 is calculated as the midpoint of a sigmoid curve fitted to the correlation of normalized ThT fluorescence and inhibitor concentration.

Q: With `CC[C@H](C)[C@H](NC(=O)[C@H](CCCNC(=N)N)NC(=O)[C@@H](NC(=O)[C@H](Cc1c[nH]c2ccccc12)NC(=O)[C@@H](N)Cc1c[nH]c2ccccc12)[C@@H](C)CC)C(=O)N[C@@H](CCCNC(=N)N)C(=O)N[C@@H](Cc1ccc(O)cc1)C(=O)N[C@@H](Cc1c[nH]c2ccccc12)C(=O)N[C@@H](CC(C)C)C(=O)O` [compound 65] (H-WWIRIRYWL-OH) as the molecule, how does the IC50 read?
A: The IC50 was 1.31 µM.

Q: For `CC[C@H](C)[C@H](NC(=O)[C@H](CCCNC(=N)N)NC(=O)[C@@H](N)Cc1c[nH]c2ccccc12)C(=O)N[C@@H](Cc1c[nH]c2ccccc12)C(=O)N[C@@H](C)C(=O)N[C@@H](CCCNC(=N)N)C(=O)N[C@@H](Cc1ccc(O)cc1)C(=O)N[C@@H](Cc1c[nH]c2ccccc12)C(=O)O` [compound 163] (H-WRIWARYW-OH), which IC50 is on record?
A: The IC50 was 2.95 µM.

Q: How did the IC50 turn out when `CC[C@H](C)[C@H](NC(=O)[C@@H](N)CCCNC(=N)N)C(=O)N[C@@H](CCCNC(=N)N)C(=O)N[C@@H](CC(C)C)C(=O)N[C@@H](Cc1c[nH]c2ccccc12)C(=O)N[C@@H](Cc1ccc(O)cc1)C(=O)N[C@@H](Cc1c[nH]c2ccccc12)C(=O)O` [compound 60] (H-RIRLWYW-OH) was run?
A: The IC50 was 8.01 µM.

Q: For `CC[C@H](C)[C@H](NC(=O)[C@H](CCCNC(=N)N)NC(=O)[C@@H](NC(=O)[C@@H](N)Cc1c[nH]c2ccccc12)[C@@H](C)CC)C(=O)N[C@@H](CCCNC(=N)N)C(=O)N[C@@H](Cc1ccc(O)cc1)C(=O)N[C@@H](Cc1c[nH]c2ccccc12)C(=O)O` [compound 152] (H-WIRIRYW-OH), which IC50 is on record?
A: The IC50 was 2.6 µM.
